# Results taken from patent US11649255B2, “Indazoles as hematopoietic progenitor kinase 1 (HPK1) inhibitors and methods using same” (1st Biotherapeutics, Inc., priority 2020, dated 2023).
# Molecular target: recombinant human HPK1 (Homo sapiens (Human), UniProt Q92918)
# Experiment: HPK1 kinase assay (ADP-Glo)
# Type: biochemical
# Details: 25 μM ATP, MBP substrate
# Outline: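 Activity was read as ADP formed, detected by ADP-Glo luminescence after the reaction of 5 ng recombinant human HPK1 with MBP and ATP (stocks 0.5 μg/μl and 25 μM) for 40 min at 30 °C. Buffer was Tris pH 7.5 with MgCl2, BSA and DTT, with compound in 0.5% DMSO. IC50 came from inhibition curves.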
# recombinant human HPK1, sequence (Q92918 whole entry): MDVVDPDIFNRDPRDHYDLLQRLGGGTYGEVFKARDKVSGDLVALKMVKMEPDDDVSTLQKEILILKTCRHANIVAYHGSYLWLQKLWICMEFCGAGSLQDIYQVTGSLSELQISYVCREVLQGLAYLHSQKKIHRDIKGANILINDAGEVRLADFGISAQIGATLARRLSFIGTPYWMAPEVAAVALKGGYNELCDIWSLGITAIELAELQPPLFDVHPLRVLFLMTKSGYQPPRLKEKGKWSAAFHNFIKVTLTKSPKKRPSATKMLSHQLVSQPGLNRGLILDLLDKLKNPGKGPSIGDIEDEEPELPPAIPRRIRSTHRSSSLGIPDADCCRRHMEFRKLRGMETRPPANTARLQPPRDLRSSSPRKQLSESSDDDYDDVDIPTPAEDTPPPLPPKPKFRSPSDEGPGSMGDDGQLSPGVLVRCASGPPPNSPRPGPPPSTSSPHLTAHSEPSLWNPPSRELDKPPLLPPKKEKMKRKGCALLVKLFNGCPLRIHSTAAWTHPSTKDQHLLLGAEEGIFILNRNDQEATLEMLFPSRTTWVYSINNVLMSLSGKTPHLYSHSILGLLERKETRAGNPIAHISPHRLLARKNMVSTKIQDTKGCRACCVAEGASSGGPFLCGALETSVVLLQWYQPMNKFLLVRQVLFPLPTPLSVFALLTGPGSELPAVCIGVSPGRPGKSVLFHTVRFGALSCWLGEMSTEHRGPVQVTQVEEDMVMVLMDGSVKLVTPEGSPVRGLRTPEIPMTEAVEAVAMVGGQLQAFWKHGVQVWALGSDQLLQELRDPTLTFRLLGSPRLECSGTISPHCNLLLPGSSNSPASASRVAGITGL
row,IC50 [nM],SMILES
1,< 100,"O=C(Nc1cn2cc(-c3c(Cl)c(F)c(N4CCOCC4)c4[nH]ncc34)ccc2n1)[C@@H]1C[C@@H]1F [Example 279, (1S,2S)-N-(6-(5-chloro-6-fluoro-7-morpholino-1H-indazol-4-yl)imidazo[1,2-a]pyridin-2-yl)-2-fluorocyclopropane-1-carboxamide]"
2,< 100,"CCNc1c(F)c(Cl)c(-c2ccc3nc(NC(=O)[C@@H]4C[C@@H]4F)cn3c2)c2cn[nH]c12 [Example 280, (1S,2S)-N-(6-(5-chloro-7-(ethylamino)-6-fluoro-1H-indazol-4-yl)imidazo[1,2-a]pyridin-2-yl)-2-fluorocyclopropane-1-carboxamide]"
3,< 100,"CCN(CC)c1c(F)c(Cl)c(-c2ccc3nc(NC(=O)[C@@H]4C[C@@H]4F)cn3c2)c2cn[nH]c12 [Example 281, (1S,2S)-N-(6-(5-chloro-7-(diethylamino)-6-fluoro-1H-indazol-4-yl)imidazo[1,2-a]pyridin-2-yl)-2-fluorocyclopropane-1-carboxamide]"
4,< 100,"O=C(Nc1cn2cc(-c3c(Cl)c(F)c(N4CCCC4)c4[nH]ncc34)ccc2n1)[C@@H]1C[C@@H]1F [Example 282, (1S,2S)-N-(6-(5-chloro-6-fluoro-7-(pyrrolidin-1-yl)-1H-indazol-4-yl)imidazo[1,2-a]pyridin-2-yl)-2-fluorocyclopropane-1-carboxamide]"
5,< 100,"O=C(Nc1cn2cc(-c3c(Cl)c(F)c(N4CCC4)c4[nH]ncc34)ccc2n1)[C@@H]1C[C@@H]1F [Example 283, (1S,2S)-N-(6-(7-(azetidin-1-yl)-5-chloro-6-fluoro-1H-indazol-4-yl)imidazo[1,2-a]pyridin-2-yl)-2-fluorocyclopropane-1-carboxamide]"
6,101 to 500,"Nc1cc2[nH]ncc2c(-c2ccc3nc(NC(=O)[C@@H]4C[C@@H]4F)cn3c2)c1Cl [Example 284, (1S,2S)-N-(6-(6-amino-5-chloro-1H-indazol-4-yl)imidazo[1,2-a]pyridin-2-yl)-2-fluorocyclopropane-1-carboxamide]"
7,< 100,"COc1cc(C)c(-c2ccc3nc(NC(=O)[C@@H]4C[C@@H]4F)cn3c2)c2cn[nH]c12 [Example 285, (1S,2S)-2-fluoro-N-(6-(7-methoxy-5-methyl-1H-indazol-4-yl)imidazo[1,2-a]pyridin-2-yl)cyclopropane-1-carboxamide]"
8,> 1000,"C=CC(=O)Nc1cc2[nH]ncc2c(-c2ccc3nc(NC(=O)[C@@H]4C[C@@H]4F)cn3c2)c1Cl [Example 286, (1S,2S)-N-(6-(6-acrylamido-5-chloro-1H-indazol-4-yl)imidazo[1,2-a]pyridin-2-yl)-2-fluorocyclopropane-1-carboxamide]"
9,< 100,"CCOc1cc(C)c(-c2ccc3nc(NC(=O)[C@@H]4C[C@@H]4F)cn3c2)c2cn[nH]c12 [Example 287, (1S,2S)-N-(6-(7-ethoxy-5-methyl-1H-indazol-4-yl)imidazo[1,2-a]pyridin-2-yl)-2-fluorocyclopropane-1-carboxamide]"
10,< 100,"CCOc1c(F)c(C)c(-c2ccc3nc(NC(=O)[C@@H]4C[C@@H]4F)cn3c2)c2cn[nH]c12 [Example 288, (1S,2S)-N-(6-(7-ethoxy-6-fluoro-5-methyl-1H-indazol-4-yl)imidazo[1,2-a]pyridin-2-yl)-2-fluorocyclopropane-1-carboxamide]"
11,> 1000,"C=CC(=O)Nc1cc2[nH]ncc2c(-c2ccc3nc(NC(=O)[C@@H]4C[C@@H]4F)cn3c2)c1C [Example 289, (1S,2S)-N-(6-(6-acrylamido-5-methyl-1H-indazol-4-yl)imidazo[1,2-a]pyridin-2-yl)-2-fluorocyclopropane-1-carboxamide]"
12,< 100,"O=C(Nc1cn2cc(-c3c(Cl)c(F)c(SCCO)c4[nH]ncc34)ccc2n1)[C@@H]1C[C@@H]1F [Example 290, (1S,2S)-N-(6-(5-chloro-6-fluoro-7-((2-hydroxyethyl)thio)-1H-indazol-4-yl)imidazo[1,2-a]pyridin-2-yl)-2-fluorocyclopropane-1-carboxamide]"
13,< 100,"Cc1c(F)c(SCCO)c2[nH]ncc2c1-c1ccc2nc(NC(=O)[C@@H]3C[C@@H]3F)cn2c1 [Example 292, (1S,2S)-2-fluoro-N-(6-(6-fluoro-7-((2-hydroxyethyl)thio)-5-methyl-1H-indazol-4-yl)imidazo[1,2-a]pyridin-2-yl)cyclopropane-1-carboxamide]"
14,< 100,"CCc1c(F)cc2[nH]ncc2c1-c1ccc2nc(NC(=O)[C@@H]3C[C@@H]3F)cn2c1 [Example 294, (1S,2S)-N-(6-(5-ethyl-6-fluoro-1H-indazol-4-yl)imidazo[1,2-a]pyridin-2-yl)-2-fluorocyclopropane-1-carboxamide]"
15,< 100,"O=C(Nc1cn2cc(-c3c(Cl)c(F)c(O)c4[nH]ncc34)ccc2n1)[C@@H]1C[C@@H]1F [Example 295, (1S,2S)-N-(6-(5-chloro-6-fluoro-7-hydroxy-1H-indazol-4-yl)imidazo[1,2-a]pyridin-2-yl)-2-fluorocyclopropane-1-carboxamide]"
16,< 100,"CCc1c(F)c(F)c2[nH]ncc2c1-c1ccc2nc(NC(=O)[C@@H]3C[C@@H]3F)cn2c1 [Example 298, (1S,2S)-N-(6-(5-ethyl-6,7-difluoro-1H-indazol-4-yl)imidazo[1,2-a]pyridin-2-yl)-2-fluorocyclopropane-1-carboxamide]"
17,101 to 500,"Cc1c(F)c([S+](C)[O-])c2[nH]ncc2c1-c1ccc2nc(NC(=O)[C@@H]3C[C@@H]3F)cn2c1 (stereo partly drawn) [Example 299, (1S,2S)-2-fluoro-N-(6-(6-fluoro-5-methyl-7-(methylsulfinyl)-1H-indazol-4-yl)imidazo[1,2-a]pyridin-2-yl)cyclopropane-1-carboxamide]"
18,< 100,"CSc1c(F)c(N(C)C)c2[nH]ncc2c1-c1ccc2nc(NC(=O)[C@@H]3C[C@@H]3F)cn2c1 [Example 300, (1S,2S)-N-(6-(7-(dimethylamino)-6-fluoro-5-(methylthio)-1H-indazol-4-yl)imidazo[1,2-a]pyridin-2-yl)-2-fluorocyclopropane-1-carboxamide]"
19,< 100,CC(=O)Nc1c(F)c(Cl)c(-c2ccc3nc(NC(=O)[C@@H]4C[C@@H]4F)cn3c2)c2cn[nH]c12 [Example 301]
20,101 to 500,"Cc1c(F)c(S(C)(=O)=O)c2[nH]ncc2c1-c1ccc2nc(NC(=O)[C@@H]3C[C@@H]3F)cn2c1 [Example 302, (1S,2S)-2-fluoro-N-(6-(6-fluoro-5-methyl-7-(methylsulfonyl)-1H-indazol-4-yl)imidazo[1,2-a]pyridin-2-yl)cyclopropane-1-carboxamide]"
21,< 100,"C[S+]([O-])c1c(F)c(Cl)c(-c2ccc3nc(NC(=O)[C@@H]4C[C@@H]4F)cn3c2)c2cn[nH]c12 (stereo partly drawn) [Example 303, (1S,2S)-N-(6-(5-chloro-6-fluoro-7-(methylsulfinyl)-1H-indazol-4-yl)imidazo[1,2-a]pyridin-2-yl)-2-fluorocyclopropane-1-carboxamide]"
22,< 100,"CSc1c(F)c(F)c2[nH]ncc2c1-c1ccc2nc(NC(=O)[C@@H]3C[C@@H]3F)cn2c1 [Example 304, (1S,2S)-N-(6-(6,7-difluoro-5-(methylthio)-1H-indazol-4-yl)imidazo[1,2-a]pyridin-2-yl)-2-fluorocyclopropane-1-carboxamide]"
23,< 100,"COC(=O)c1c(F)c(C)c(-c2ccc3nc(NC(=O)[C@@H]4C[C@@H]4F)cn3c2)c2cn[nH]c12 [Example 305, methyl 6-fluoro-4-(2-((1S,2S)-2-fluorocyclopropane-1-carboxamido)imidazo[1,2-a]pyridin-6-yl)-5-methyl-1H-indazole-7-carboxylate]"
24,< 100,"CCN(C)c1c(F)c(Cl)c(-c2ccc3nc(NC(=O)[C@@H]4C[C@@H]4F)cn3c2)c2cn[nH]c12 [Example 306, (1S,2S)-N-(6-(5-chloro-7-(ethyl(methyl)amino)-6-fluoro-1H-indazol-4-yl)imidazo[1,2-a]pyridin-2-yl)-2-fluorocyclopropane-1-carboxamide]"
25,< 100,"CN(C)c1c(F)c(C(F)(F)F)c(-c2ccc3nc(NC(=O)[C@@H]4C[C@@H]4F)cn3c2)c2cn[nH]c12 [Example 307, (1S,2S)-N-(6-(7-(dimethylamino)-6-fluoro-5-(trifluoromethyl)-1H-indazol-4-yl)imidazo[1,2-a]pyridin-2-yl)-2-fluorocyclopropane-1-carboxamide]"
26,101 to 500,"CC(=O)Nc1c(F)c(C)c(-c2ccc3nc(NC(=O)[C@@H]4C[C@@H]4F)cn3c2)c2cn[nH]c12 [Example 308, (1S,2S)-N-(6-(7-acetamido-6-fluoro-5-methyl-1H-indazol-4-yl)imidazo[1,2-a]pyridin-2-yl)-2-fluorocyclopropane-1-carboxamide]"
27,< 100,"CN(Nc1c(F)c(Cl)c(-c2ccc3nc(NC(=O)[C@@H]4C[C@@H]4F)cn3c2)c2cn[nH]c12)C(=O)OC(C)(C)C [Example 309, tert-butyl 2-(5-chloro-6-fluoro-4-(2-((1S,2S)-2-fluorocyclopropane-1-carboxamido)imidazo[1,2-a]pyridin-6-yl)-1H-indazol-7-yl)-1-methylhydrazine-1-carboxylate]"
28,< 100,"CCOc1c(F)c(SC)c(-c2ccc3nc(NC(=O)[C@@H]4C[C@@H]4F)cn3c2)c2cn[nH]c12 [Example 310, (1S,2S)-N-(6-(7-ethoxy-6-fluoro-5-(methylthio)-1H-indazol-4-yl)imidazo[1,2-a]pyridin-2-yl)-2-fluorocyclopropane-1-carboxamide]"
29,< 100,"CNC(=O)OCCSc1c(F)c(C)c(-c2ccc3nc(NC(=O)[C@@H]4C[C@@H]4F)cn3c2)c2cn[nH]c12 [Example 312, 2-((6-fluoro-4-(2-((1S,2S)-2-fluorocyclopropane-1-carboxamido)imidazo[1,2-a]pyridin-6-yl)-5-methyl-1H-indazol-7-yl)thio)ethyl methylcarbamate]"
30,> 1000,"Cc1c(F)c(C(=O)O)c2[nH]ncc2c1-c1ccc2nc(NC(=O)[C@@H]3C[C@@H]3F)cn2c1 [Example 313, 6-fluoro-4-(2-((1S,2S)-2-fluorocyclopropane-1-carboxamido)imidazo[1,2-a]pyridin-6-yl)-5-methyl-1H-indazole-7-carboxylic acid]"
